Test results: the supplement of paper PMC10733146

Key:
Test in all cases: viability relative to DMSO control (fraction); higher = less drug effect (more viable cells)
[1] = system: primary ALL patient cells (S048); conditions: 48 h
Procedure, shortened: (§1)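 Using 384-well plates with compounds already plated at five concentrations, one well per concentration, 4 × 10^4 primary mononuclear tumour cells were added per well. Cells were Ficoll-isolated from blood or bone marrow or came from processed lymph node, fresh or cryopreserved. They were kept for 48 h at 37 °C and 5% CO2 in RPMI-1640 supplemented with penicillin/streptomycin, L-glutamine and human serum, and viability was read as CellTiter-Glo luminescence relative to the median of 16 inner DMSO wells.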

[2] = system: primary ALL patient cells (S088); conditions: 48 h
Procedure, shortened: as §1

[3] = system: primary AML patient cells (S006); conditions: 48 h
Procedure, shortened: as §1

[4] = system: primary AML patient cells (S007); conditions: 2 µM; 48 h
Procedure, shortened: as §1

[5] = system: primary AML patient cells (S011); conditions: 48 h
Procedure, shortened: as §1

[6] = system: primary AML patient cells (S012); conditions: 48 h
Procedure, shortened: as §1

[7] = system: primary AML patient cells (S019); conditions: 48 h
Procedure, shortened: as §1

[8] = system: primary AML patient cells (S056); conditions: 48 h
Procedure, shortened: as §1

[9] = system: primary AML patient cells (S079); conditions: 48 h
Procedure, shortened: as §1

[10] = system: primary AML patient cells (S085); conditions: 48 h
Procedure, shortened: as §1

[11] = system: primary CLL patient cells (S031); conditions: 48 h
Procedure, shortened: as §1

[12] = system: primary DLBCL patient cells (S049); conditions: 48 h
Procedure, shortened: as §1

[13] = system: primary DLBCL patient cells (S076); conditions: 48 h
Procedure, shortened: as §1

[14] = system: primary FL patient cells (S022); conditions: 48 h
Procedure, shortened: as §1

[15] = system: primary FL patient cells (S087); conditions: 48 h
Procedure, shortened: as §1

[16] = system: primary MCL patient cells (S041); conditions: 48 h
Procedure, shortened: as §1

[17] = system: primary MCL patient cells (S063); conditions: 48 h
Procedure, shortened: as §1

[18] = system: primary T-NHL patient cells (S058); conditions: 48 h
Procedure, shortened: as §1

CC(C)c1cc(-c2n[nH]c(=O)n2-c2ccc3c(ccn3C)c2)c(O)cc1O [Ganetespib]
viability ([1]; 0.0032 µM): 0.9 | viability ([1]; 0.016 µM): 0.632 | viability ([1]; 0.08 µM): 0.517 | viability ([1]; 0.4 µM): 0.48 | viability ([1]; 2 µM): 0.453 | viability ([2]; 0.0032 µM): 0.823 | viability ([2]; 0.016 µM): 0.425 | viability ([2]; 0.08 µM): 0.274 | viability ([2]; 0.4 µM): 0.259 | viability ([2]; 2 µM): 0.267 | viability ([3]; 0.0032 µM): 0.846 | viability ([3]; 0.016 µM): 0.154 | viability ([3]; 0.08 µM): 0.134 | viability ([3]; 0.4 µM): 0.198 | viability ([3]; 2 µM): 0.186 | viability [4]: 0.0928 | viability ([5]; 0.0032 µM): 1.13 | viability ([5]; 0.016 µM): 0.778 | viability ([5]; 0.08 µM): 0.624 | viability ([5]; 0.4 µM): 0.684 | viability ([5]; 2 µM): 0.644 | viability ([6]; 0.0032 µM): 0.991 | viability ([6]; 0.016 µM): 0.964 | viability ([6]; 0.08 µM): 0.131 | viability ([6]; 0.4 µM): 0.126 | viability ([6]; 2 µM): 0.121 | viability ([7]; 0.0032 µM): 0.923 | viability ([7]; 0.016 µM): 0.682 | viability ([7]; 0.08 µM): 0.411 | viability ([7]; 0.4 µM): 0.465 | viability ([7]; 2 µM): 0.444 | viability ([8]; 0.0032 µM): 0.705 | viability ([8]; 0.016 µM): 0.203 | viability ([8]; 0.08 µM): 0.137 | viability ([8]; 0.4 µM): 0.176 | viability ([8]; 2 µM): 0.169 | viability ([9]; 0.0032 µM): 0.983 | viability ([9]; 0.016 µM): 0.825 | viability ([9]; 0.08 µM): 0.398 | viability ([9]; 0.4 µM): 0.352 | viability ([9]; 2 µM): 0.332 | viability ([10]; 0.0032 µM): 0.973 | viability ([10]; 0.016 µM): 0.648 | viability ([10]; 0.08 µM): 0.195 | viability ([10]; 0.4 µM): 0.251 | viability ([10]; 2 µM): 0.264 | viability ([11]; 0.0032 µM): 0.998 | viability ([11]; 0.016 µM): 0.873 | viability ([11]; 0.08 µM): 0.324 | viability ([11]; 0.4 µM): 0.267 | viability ([11]; 2 µM): 0.256 | viability ([12]; 0.0032 µM): 0.955 | viability ([12]; 0.016 µM): 0.989 | viability ([12]; 0.08 µM): 0.888 | viability ([12]; 0.4 µM): 0.54 | viability ([12]; 2 µM): 0.537 | viability ([13]; 0.0032 µM): 1.12 | viability ([13]; 0.016 µM): 0.904 | viability ([13]; 0.08 µM): 0.467 | viability ([13]; 0.4 µM): 0.407 | viability ([13]; 2 µM): 0.396 | viability ([14]; 0.0032 µM): 0.919 | viability ([14]; 0.016 µM): 0.865 | viability ([14]; 0.08 µM): 0.833 | viability ([14]; 0.4 µM): 0.764 | viability ([14]; 2 µM): 0.727 | viability ([15]; 0.0032 µM): 1.01 | viability ([15]; 0.016 µM): 1.01 | viability ([15]; 0.08 µM): 0.853 | viability ([15]; 0.4 µM): 0.881 | viability ([15]; 2 µM): 0.848 | viability ([16]; 0.0032 µM): 0.98 | viability ([16]; 0.016 µM): 0.846 | viability ([16]; 0.08 µM): 0.533 | viability ([16]; 0.4 µM): 0.406 | viability ([16]; 2 µM): 0.404 | viability ([17]; 0.0032 µM): 1 | viability ([17]; 0.016 µM): 1.05 | viability ([17]; 0.08 µM): 0.136 | viability ([17]; 0.4 µM): 0.0898 | viability ([17]; 2 µM): 0.0823 | viability ([18]; 0.0032 µM): 1.01 | viability ([18]; 0.016 µM): 0.978 | viability ([18]; 0.08 µM): 0.943 | viability ([18]; 0.4 µM): 1.14 | viability ([18]; 2 µM): 1.12
